Assay results published in US11826351B2, “Compounds useful as kinase inhibitors” (Loxo Oncology, Inc., priority 2015, dated 2023).
pIC50: −log10 of the molar value. Read-outs that look alike come from different tables or passages of the source.

What was measured:
Recombinant EGFR = molecular target: T1, Recombinant EGFR (Homo sapiens, UniProt P00533); assay: EGFR binding affinity (LanthaScreen TR-FRET); details: Kinase Tracer 199, 5 h incubation
T1 construct: purchased Invitrogen
Method in brief: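 TR-FRET binding (LanthaScreen) with recombinant EGFR; signal measured across a compound concentration range. IC50 obtained by fitting RFU against log[inhibitor] to a variable-slope model.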

[1] = molecular target: T2, Recombinant BTK^C481S kinase (Homo sapiens, UniProt Q06187, C481S); assay: BTK C481S binding affinity (LanthaScreen TR-FRET); details: Kinase Tracer 236, 5 h incubation
T2 construct: purchased SignalChem
T2 sequence (Q06187 whole entry C481S): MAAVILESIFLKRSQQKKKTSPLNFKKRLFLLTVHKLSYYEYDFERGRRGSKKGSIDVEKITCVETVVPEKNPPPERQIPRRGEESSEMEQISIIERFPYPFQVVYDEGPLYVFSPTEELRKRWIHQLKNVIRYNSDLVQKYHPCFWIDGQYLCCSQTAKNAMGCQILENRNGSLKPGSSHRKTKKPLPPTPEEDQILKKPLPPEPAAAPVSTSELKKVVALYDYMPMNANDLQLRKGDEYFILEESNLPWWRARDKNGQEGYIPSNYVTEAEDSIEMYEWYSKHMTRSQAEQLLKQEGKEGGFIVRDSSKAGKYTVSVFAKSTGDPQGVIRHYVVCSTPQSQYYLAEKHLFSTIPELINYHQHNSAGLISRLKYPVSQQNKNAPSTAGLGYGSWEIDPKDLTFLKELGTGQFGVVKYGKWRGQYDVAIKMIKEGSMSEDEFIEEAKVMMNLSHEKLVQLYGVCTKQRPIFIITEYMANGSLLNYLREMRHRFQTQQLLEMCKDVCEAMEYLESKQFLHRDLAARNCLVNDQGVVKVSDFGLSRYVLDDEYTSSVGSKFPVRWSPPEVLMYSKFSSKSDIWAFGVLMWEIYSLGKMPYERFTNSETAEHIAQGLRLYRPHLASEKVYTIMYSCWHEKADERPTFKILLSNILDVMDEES
Method in brief: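 BTK C481S tracer-displacement TR-FRET: 5 nM His-tagged kinase, 2 nM Eu anti-His antibody and 30 nM Kinase Tracer 236 incubated with titrated inhibitor for 5 h in Kinase Buffer A. Read at 340 nm excitation, 615/665 nm emission; IC50 from variable-slope log[inhibitor]–response fit.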

[2] = molecular target: T3, Recombinant BTK^WT kinase (Homo sapiens, UniProt Q06187); assay: BTK WT binding affinity (LanthaScreen TR-FRET); details: Kinase Tracer 236, 5 h incubation
T3 construct: purchased Invitrogen
T3 sequence (Q06187 whole entry): as the sequence (Q06187 whole entry C481S) above, with S481C counted along it
Method in brief: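 Tracer-displacement TR-FRET: 2.5 nM recombinant BTK^WT, 2 nM Eu anti-His antibody and 15 nM Kinase Tracer 236 incubated with varying inhibitor concentrations for 5 h in Kinase Buffer A. Signal read at 340 nm excitation, 615/665 nm emission; IC50 from variable-slope log[inhibitor]–response fit.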

[3] = tested on: OCI-Ly10 human DLBCL cells; assay: OCI-Ly10 anti-proliferative activity (Resazurin); format: cell-based; details: OCI-Ly10 cells, 72 h compound treatment, Resazurin, read-out: Proliferation Assay OCI-Ly10-20% FBS
Method in brief: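 OCI-Ly10 human DLBCL cells, whose growth depends on NFκB signalling, were seeded at 7.5×10^3 cells per well in 96-well plates with a range of compound concentrations and kept at 37° C for 72 h. Resazurin was then added, and after 5 h fluorescence was read at 590 nm.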

T1 sequence (P00533 25-1210): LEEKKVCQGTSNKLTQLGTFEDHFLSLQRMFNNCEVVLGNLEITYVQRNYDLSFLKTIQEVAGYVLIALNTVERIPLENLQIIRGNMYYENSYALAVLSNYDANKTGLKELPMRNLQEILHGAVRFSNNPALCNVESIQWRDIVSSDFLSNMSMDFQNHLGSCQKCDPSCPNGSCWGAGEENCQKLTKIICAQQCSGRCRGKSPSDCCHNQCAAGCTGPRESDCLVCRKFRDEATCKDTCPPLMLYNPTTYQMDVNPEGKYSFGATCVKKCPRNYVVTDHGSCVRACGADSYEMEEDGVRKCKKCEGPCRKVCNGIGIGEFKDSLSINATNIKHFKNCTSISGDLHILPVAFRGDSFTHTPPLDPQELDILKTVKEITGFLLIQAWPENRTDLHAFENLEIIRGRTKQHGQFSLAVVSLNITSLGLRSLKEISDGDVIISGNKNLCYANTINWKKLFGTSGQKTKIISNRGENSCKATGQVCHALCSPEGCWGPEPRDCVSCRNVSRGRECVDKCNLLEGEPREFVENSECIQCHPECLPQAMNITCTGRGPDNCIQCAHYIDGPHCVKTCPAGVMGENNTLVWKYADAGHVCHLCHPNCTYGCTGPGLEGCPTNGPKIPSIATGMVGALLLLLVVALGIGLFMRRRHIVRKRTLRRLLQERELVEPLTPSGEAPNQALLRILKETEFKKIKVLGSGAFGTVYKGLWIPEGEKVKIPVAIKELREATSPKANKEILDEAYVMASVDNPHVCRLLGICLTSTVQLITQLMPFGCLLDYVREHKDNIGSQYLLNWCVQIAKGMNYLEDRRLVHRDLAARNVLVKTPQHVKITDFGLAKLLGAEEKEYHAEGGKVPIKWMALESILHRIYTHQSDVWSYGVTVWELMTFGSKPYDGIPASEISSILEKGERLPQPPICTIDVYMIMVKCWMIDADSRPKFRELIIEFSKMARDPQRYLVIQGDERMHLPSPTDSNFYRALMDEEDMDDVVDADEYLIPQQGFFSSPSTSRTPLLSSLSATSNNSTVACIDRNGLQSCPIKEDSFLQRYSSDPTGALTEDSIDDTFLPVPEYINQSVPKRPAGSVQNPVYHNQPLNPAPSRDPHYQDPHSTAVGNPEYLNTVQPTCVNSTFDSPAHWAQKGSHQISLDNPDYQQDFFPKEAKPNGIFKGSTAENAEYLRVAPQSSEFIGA

| pIC50 (Recombinant EGFR) | pIC50 [1] | pIC50 [2] | pIC50 ([3]; Homo sapiens, OCI-Ly10, 72 h) | pIC50 [3] | SMILES |
| --- | --- | --- | --- | --- | --- |
| 6.00 to 7.00 | > 8.00 | > 8.00 | > 8.00 | – | COc1ccccc1C(=O)NCc1ccc(-c2nn(C3C[C@@H]4C[C@@H]4C3)c(N)c2C(N)=O)cc1 (some centres unmarked) [Example 4, 5-Amino-1-(3-bicyclo[3.1.0]hexanyl)-3-[4-[[(2-methoxybenzoyl)amino]methyl]phenyl]pyrazole-4-carboxamide] |
| 5.00 to 6.00 | > 8.00 | 7.00 to 8.00 | – | 5.00 to 6.00 | COc1ccccc1C(=O)NCc1ccc(-c2nn(C3CCOC3C)c(N)c2C(N)=O)cc1 (single isomer, unassigned) [Example 84, 5-amino-3-[4-[[(2-methoxybenzoyl)amino]methyl]phenyl]-1-[2-methyltetrahydrofuran-3-yl]pyrazole-4-carboxamide] |
| < 5.00 | > 8.00 | > 8.00 | 6.00 to 7.00 | – | COc1ccccc1C(=O)NCc1cc(F)c(-c2nn(C3CCCC3)c(N)c2C(N)=O)c(F)c1 [Example 140, 5-amino-1-cyclopentyl-3-[2,6-difluoro-4-[[(2-methoxybenzoyl)amino]methyl]phenyl]pyrazole-4-carboxamide] |
| 5.00 to 6.00 | > 8.00 | > 8.00 | 7.00 to 8.00 | – | COc1ccc(F)cc1C(=O)NCc1cc(F)c(-c2nn(C3CCCC3)c(N)c2C(N)=O)cc1F [Example 137, 5-amino-1-cyclopentyl-3-[2,5-difluoro-4-[[(5-fluoro-2-methoxy-benzoyl)amino]methyl]phenyl]pyrazole-4-carboxamide] |
| < 5.00 | 7.00 to 8.00 | 6.00 to 7.00 | 6.00 to 7.00 | – | COc1ccccc1C(=O)NCc1ccc(-c2nn(CC3(C)COC3)c(N)c2C(N)=O)cc1 [Example 8, 5-amino-3-[4-[[(2-methoxybenzoyl)amino]methyl]phenyl]-1-[(3-methyloxetan-3-yl)methyl]pyrazole-4-carboxamide] |
| 6.00 to 7.00 | > 8.00 | > 8.00 | 7.00 to 8.00 | – | COc1ccccc1C(=O)NCc1ccc(-c2nn(C3CCCC3)c(N)c2C(N)=O)cc1F [Example 93, 5-amino-1-cyclopentyl-3-[3-fluoro-4-[[(2-methoxybenzoyl)amino]methyl]phenyl]pyrazole-4-carboxamide] |
| 5.00 to 6.00 | > 8.00 | > 8.00 | 7.00 to 8.00 | – | COc1ccccc1C(=O)NCc1ccc(-c2nn(C3CCCOC3)c(N)c2C(N)=O)cc1F (centres unmarked) [Example 117, 5-amino-3-[3-fluoro-4-[[(2-methoxybenzoyl)amino]methyl]phenyl]-1-tetrahydropyran-3-yl-pyrazole-4-carboxamide] |
| 5.00 to 6.00 | > 8.00 | > 8.00 | 7.00 to 8.00 | – | COc1ccc(F)cc1C(=O)NCc1ccc(-c2nn(C(C)C(F)(F)F)c(N)c2C(N)=O)c(F)c1 (centres unmarked) [Example 179, 5-amino-3-[2-fluoro-4-[[(5-fluoro-2-methoxy-benzoyl)amino]methyl]phenyl]-1-(2,2,2-trifluoro-1-methyl-ethyl)pyrazole-4-carboxamide] |
| 5.00 to 6.00 | > 8.00 | > 8.00 | 7.00 to 8.00 | – | COc1ccccc1C(=O)NCc1ccc(-c2nn(-c3ccc(F)cc3F)c(N)c2C(N)=O)cc1 [Example 15, 5-Amino-1-(2,4-difluorophenyl)-3-[4-[[(2-methoxybenzoyl)amino]methyl]phenyl]pyrazole-4-carboxamide] |
| 5.00 to 6.00 | > 8.00 | > 8.00 | 6.00 to 7.00 | – | COc1ccccc1C(=O)NCc1ccc(-c2nn(C3CC3)c(N)c2C(N)=O)cc1 [Example 29, 5-Amino-1-cyclopropyl-3-[4-[[(2-methoxybenzoyl)amino]methyl]phenyl]pyrazole-4-carboxamide] |
| 5.00 to 6.00 | > 8.00 | 7.00 to 8.00 | 6.00 to 7.00 | – | COc1ccccc1C(=O)NCc1ccc(-c2nn(C3CCCC3)c(NC(C)C)c2C(N)=O)cc1 [Example 72, 1-cyclopentyl-5-(isopropylamino)-3-[4-[[(2-methoxybenzoyl)amino]methyl]phenyl]pyrazole-4-carboxamide] |
| 6.00 to 7.00 | > 8.00 | > 8.00 | 7.00 to 8.00 | – | COc1ccccc1C(=O)NCc1ccc(-c2nn(C3CCC4(CC3)COC4)c(N)c2C(N)=O)cc1 [Example 71, 5-amino-3-[4-[[(2-methoxybenzoyl)amino]methyl]phenyl]-1-(2-oxaspiro[3.5]nonan-7-yl)pyrazole-4-carboxamide] |
| 5.00 to 6.00 | > 8.00 | 7.00 to 8.00 | 5.00 to 6.00 | – | COc1ccccc1C(=O)NCc1ccc(-c2nn(C(CO)CCl)c(N)c2C(N)=O)cc1 (centres unmarked) [Example 66, 5-amino-1-[1-(chloromethyl)-2-hydroxy-ethyl]-3-[4-[[(2-methoxybenzoyl)amino]methyl]phenyl]pyrazole-4-carboxamide] |
| < 5.00 | > 8.00 | > 8.00 | 7.00 to 8.00 | – | COc1ccc(F)cc1C(=O)NCc1ccc(-c2nn(C3CCCC3)c(N)c2C(N)=O)c(F)c1F [Example 154, 5-amino-1-cyclopentyl-3-[2,3-difluoro-4-[[(5-fluoro-2-methoxy-benzoyl)amino]methyl]phenyl]pyrazole-4-carboxamide] |
| 5.00 to 6.00 | > 8.00 | 7.00 to 8.00 | 6.00 to 7.00 | – | COc1ccccc1C(=O)NCc1ccc(-c2nn(-c3cccc(C(F)(F)F)c3)c(N)c2C(N)=O)cc1 [Example 16, 5-Amino-3-[4-[[(2-methoxybenzoyl)amino]methyl]phenyl]-1-[3-(trifluoromethyl)phenyl]pyrazole-4-carboxamide] |
| 6.00 to 7.00 | > 8.00 | > 8.00 | 7.00 to 8.00 | – | CNc1c(C(N)=O)c(-c2ccc(CNC(=O)c3ccccc3OC)cc2)nn1C1CCCC1 [Example 60, 1-cyclopentyl-3-[4-[[(2-methoxybenzoyl)amino]methyl]phenyl]-5-(methylamino)pyrazole-4-carboxamide] |
| 5.00 to 6.00 | > 8.00 | > 8.00 | 7.00 to 8.00 | – | COc1ccc(F)cc1C(=O)NCc1ccc(-c2nn(C3CCN(C)CC3(F)F)c(N)c2C(N)=O)cc1 (centres unmarked) [Example 191, 5-amino-1-(3,3-difluoro-1-methyl-4-piperidyl)-3-[4-[[(5-fluoro-2-methoxy-benzoyl)amino]methyl]phenyl]pyrazole-4-carboxamide] |
| < 5.00 | > 8.00 | > 8.00 | 7.00 to 8.00 | – | COc1ccc(F)cc1C(=O)NCc1cc(F)c(-c2nn(C3CCCOC3)c(N)c2C(N)=O)cc1F (centres unmarked) [Example 149, 5-amino-3-[2,5-difluoro-4-[[(5-fluoro-2-methoxy-benzoyl)amino]methyl]phenyl]-1-tetrahydropyran-3-yl-pyrazole-4-carboxamide] |
| 5.00 to 6.00 | > 8.00 | > 8.00 | 7.00 to 8.00 | – | COc1ccc(F)cc1C(=O)NCc1ccc(-c2nn(C3CN(C)CC3(F)F)c(N)c2C(N)=O)cc1 (centres unmarked) [Example 199, 5-amino-1-(4,4-difluoro-1-methyl-pyrrolidin-3-yl)-3-[4-[[(5-fluoro-2-methoxy-benzoyl)amino]methyl]phenyl]pyrazole-4-carboxamide] |
| 5.00 to 6.00 | > 8.00 | 7.00 to 8.00 | 6.00 to 7.00 | – | COc1ccccc1C(=O)NCc1ccc(-c2nn(C(C)C(F)F)c(N)c2C(N)=O)cc1 (centres unmarked) [Example 126, 5-amino-1-(2,2-difluoro-1-methyl-ethyl)-3-[4-[[(2-methoxybenzoyl)amino]methyl]phenyl]pyrazole-4-carboxamide] |
| 5.00 to 6.00 | > 8.00 | 7.00 to 8.00 | 6.00 to 7.00 | – | COc1ccc(F)cc1C(=O)NCc1ccc(-c2nn(C3CCOC3)c(N)c2C(N)=O)c(F)c1F (centres unmarked) [Example 182, 5-amino-3-[2,3-difluoro-4-[[(5-fluoro-2-methoxy-benzoyl)amino]methyl]phenyl]-1-tetrahydrofuran-3-yl-pyrazole-4-carboxamide] |
| 5.00 to 6.00 | > 8.00 | > 8.00 | 7.00 to 8.00 | – | COc1ccc(F)cc1C(=O)NCc1ccc(-c2nn([C@H](C)C(F)(F)F)c(N)c2C(N)=O)cc1 (single isomer, unassigned) [Example 163b, 5-amino-3-[4-[[(5-fluoro-2-methoxy-benzoyl)amino]methyl]phenyl]-1-(2,2,2-trifluoro-1-methyl-ethyl)pyrazole-4-carboxamide] |
| < 5.00 | > 8.00 | 7.00 to 8.00 | 6.00 to 7.00 | – | COCC(C)n1nc(-c2ccc(CNC(=O)c3ccccc3OC)cc2)c(C(N)=O)c1N (centres unmarked) [Example 143, 5-amino-3-[4-[[(2-methoxybenzoyl)amino]methyl]phenyl]-1-(2-methoxy-1-methyl-ethyl)pyrazole-4-carboxamide] |
